The subject of assay [1] is uterus growth induced by 17β-estradiol. Nature of the assay: Anti-uterus growth test in the adult rat. Type of assay: in vivo. Particulars: sc; ovariectomized adult rat, 0.3 mg/kg s.c. d1-d3 with 1.5 μg/kg/day 17β-estradiol; percentage inhibition of uterus growth; read-out: Anti-oestrogenic activity in vivo in % at a dose of 0.3 mg/kg (rat). From the text: The uterus of oestrogen-substituted rats can be used as a test model for detecting a direct action of substances with anti-oestrogenic properties. The parameter of oestrogenic action is estradiol-induced uterus growth in rats, which is inhibited by simultaneous administration of a substance with anti-oestrogenic action. The experimental animals (n=5-6 animals/group) were ovariectomized before the start of the test, to rule out the influence of endogenous oestrogens. After a phase of 6 to 10 days, the test substances are administered s.c. on 3 consecutive days (d1-d3) in combination with a substitution dose of 1.5 μg/kg/day of 17β-estradiol. 17β-estradiol alone serves as positive control, and the excipients serve as negative control. On day 4 (d4) the animals are killed, and the uteri and vaginae are removed and weighed. The organ weights are converted to mg/100 g body weight, then the mean value and the standard deviation are calculated for each dosage. The inhibition of uterus or vaginal growth induced by 17β-estradiol is shown as percentage inhibition. The selected claimed substances were investigated in adult female rats as described for their anti-oestrogenic, inhibitory action on the weight of the uterus. At the dosage used, the substances show a marked anti-oestrogenic action in vivo (Table 3 and Table 4).

Another assay has as its target T1, oestrogen receptor (ER) (Homo sapiens, UniProt P03372).
T1 construct: These MVLN cells express, along with the functional oestrogen receptor (ER), a reporter construct; endogenous in cells; host or cells: MVLN cells (MCF7 derivative with ER-responsive luciferase reporter)
T1 sequence (P03372 1-595): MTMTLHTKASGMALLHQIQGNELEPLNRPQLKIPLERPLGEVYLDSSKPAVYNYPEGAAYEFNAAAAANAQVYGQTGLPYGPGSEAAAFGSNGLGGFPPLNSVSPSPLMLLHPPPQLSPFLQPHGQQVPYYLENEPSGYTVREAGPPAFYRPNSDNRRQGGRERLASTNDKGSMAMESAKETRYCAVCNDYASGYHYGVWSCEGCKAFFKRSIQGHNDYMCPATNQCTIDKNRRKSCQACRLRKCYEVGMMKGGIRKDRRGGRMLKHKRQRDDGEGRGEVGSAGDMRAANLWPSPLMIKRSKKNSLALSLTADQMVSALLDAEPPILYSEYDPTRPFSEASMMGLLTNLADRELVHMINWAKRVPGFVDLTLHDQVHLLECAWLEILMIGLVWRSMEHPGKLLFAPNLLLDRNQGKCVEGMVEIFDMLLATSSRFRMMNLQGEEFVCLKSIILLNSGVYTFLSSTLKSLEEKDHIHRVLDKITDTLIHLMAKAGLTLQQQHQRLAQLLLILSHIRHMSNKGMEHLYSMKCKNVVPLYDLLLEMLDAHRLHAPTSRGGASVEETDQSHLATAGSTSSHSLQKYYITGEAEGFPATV
In words: Anti-oestrogenic action in MVLN cells (inhibition of estradiol-induced luciferase, transactivation antagonism). Type of assay: cell-based. To be noted: inhibition of estradiol-induced luciferase activity, read-out: Anti-oestrogenic action in vitro: MVLN transactivation antagonism IC50. The method, boiled down:
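MCF7-derived MVLN cells carrying an ER-driven luciferase reporter; test compounds applied with estradiol, and anti-oestrogenic action scored as inhibition of the estradiol-induced luciferase signal.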

As usually defined, the IC50 is the concentration at which inhibition is half-maximal.

Turning to `CN(CCCCCCC1=C(c2cccc(O)c2)CCCc2cc(O)ccc21)CCCCCCS(=O)(=O)CCCC(F)(F)C(F)(F)F` [Example 19, 8-(3-Hydroxyphenyl)-9-[6-(methyl{6-[(4,4,5,5,5-pentafluoropentyl)sulphonyl]hexyl}amino)hexyl]-6,7-dihydro-5H-benzo[7]annulen-3-ol], the inhibition in vivo at 0.3 mg/kg in assay [1] worked out at 38%. For the same compound, the half-inhibitory concentration (IC50) on oestrogen receptor (ER) was determined as 5 nM.

In the case of `CN(CCCCCCC1=C(c2cc(O)ccc2F)CCCc2cc(O)ccc21)CCCS(=O)(=O)CCCC(F)(F)C(F)(F)F` [Example 23, 8-(2-Fluoro-5-hydroxyphenyl)-9-[6-(methyl{3-[(4,4,5,5,5-pentafluoropentyl)sulphonyl]propyl}amino)hexyl]-6,7-dihydro-5H-benzo[7]annulen-3-ol], the inhibition in vivo at 0.3 mg/kg in assay [1] stood at 77%. On oestrogen receptor (ER), the half-inhibitory concentration (IC50) was 2 nM.

Consider `CN(CCCCCC1=C(c2ccc(O)c(F)c2)CCCc2cc(O)ccc21)CCC[S+]([O-])CCCC(F)(F)C(F)(F)F` (racemic) [Example 37, 8-(3-Fluoro-4-hydroxyphenyl)-9-[5-(methyl{3-[(RS)-(4,4,5,5,5-pentafluoropentyl)sulphinyl]propyl}amino)pentyl]-6,7-dihydro-5H-benzo[7]annulen-3-ol], for which the inhibition in vivo at 0.3 mg/kg in assay [1] was 59%. For the same compound, the IC50 at oestrogen receptor (ER) came to 1 nM.

As to `CN(CCCCCCC1=C(c2cccc(O)c2)CCCc2cc(O)ccc21)CCC[S+]([O-])CCC(F)(F)F` (racemic) [Example 55, 8-(3-Hydroxyphenyl)-9-[6-(methyl{3-[(RS)-(3,3,3-trifluoropropyl)sulphinyl]propyl}amino)hexyl]-6,7-dihydro-5H-benzo[7]annulen-3-ol], the IC50 at oestrogen receptor (ER) came to 2 nM.

`CN(CCCCCCC1=C(c2ccc(F)c(O)c2)CCCc2cc(O)c(F)cc21)CCCC[S+]([O-])CCCC(F)(F)C(F)(F)F` (racemic) [Example 124, 2-Fluoro-8-(4-fluoro-3-hydroxyphenyl)-9-[6-(methyl{4-[(RS)-(4,4,5,5,5-pentafluoropentyl)sulphinyl]butyl}amino)hexyl]-6,7-dihydro-5H-benzo[7]annulen-3-ol]: on oestrogen receptor (ER), the 50% inhibitory concentration (IC50) stood at 6 nM.

`CN(CCCCCCC1=C(c2ccc(O)cc2)CCCc2cc(O)ccc21)CCC[S+]([O-])CCCC(F)(F)C(F)(F)F` (racemic) [Example 26, 8-(4-Hydroxyphenyl)-9-[6-(methyl{3-[(RS)-(4,4,5,5,5-pentafluoropentyl)sulphinyl]propyl}amino)hexyl]-6,7-dihydro-5H-benzo[7]annulen-3-ol]: the IC50 on oestrogen receptor (ER) was 1 nM.

As to `COCCN(CCCCCCC1=C(c2cccc(O)c2)CCCc2cc(O)ccc21)CCCS(=O)(=O)CCCC(F)(F)C(F)(F)F` [Example 106, 8-(3-Hydroxyphenyl)-9-{6-[(2-methoxyethyl){3-[(4,4,5,5,5-pentafluoropentyl)sulphonyl]propyl}amino]hexyl}-6,7-dihydro-5H-benzo[7]annulen-3-ol], the 50% inhibitory concentration (IC50) at oestrogen receptor (ER) was 1 nM.

With `CN(CCCCCCC1=C(c2ccc(F)c(O)c2)CCCc2cc(O)c(F)cc21)CCCCS(=O)(=O)CCCC(F)(F)F` [Example 128, 2-Fluoro-8-(4-fluoro-3-hydroxyphenyl)-9-[6-(methyl{4-[(4,4,4-trifluorobutyl)sulphonyl]butyl}amino)hexyl]-6,7-dihydro-5H-benzo[7]annulen-3-ol], the 50% inhibitory concentration (IC50) on oestrogen receptor (ER) was found to be 5 nM.

With `COCCCN(CCCCCCC1=C(c2cccc(O)c2)CCCc2cc(O)ccc21)CCCS(=O)(=O)CCCC(F)(F)C(F)(F)F` [Example 107, 8-(3-Hydroxyphenyl)-9-{6-[(3-methoxypropyl){3-[(4,4,5,5,5-pentafluoropentyl)sulphonyl]propyl}amino]hexyl}-6,7-dihydro-5H-benzo[7]annulen-3-ol], the IC50 at oestrogen receptor (ER) came out at 3 nM.

`CN(CCCCCCC1=C(c2cccc(O)c2)CCCc2cc(O)ccc21)CCCC[S+]([O-])CCCC(F)(F)C(F)(F)F` (racemic) [Example 14, 8-(3-Hydroxyphenyl)-9-[6-(methyl{4-[(RS)-(4,4,5,5,5-pentafluoropentyl)sulphinyl]butyl}amino)hexyl]-6,7-dihydro-5H-benzo[7]annulen-3-ol]: the IC50 at oestrogen receptor (ER) was found to be 2 nM.

In the case of `CN(CCCCCC1=C(c2cccnc2)CCCc2cc(O)ccc21)CCCS(=O)(=O)CCCC(F)(F)C(F)(F)F` [Example 41, 9-[5-(Methyl{3-[(4,4,5,5,5-pentafluoropentyl)sulphonyl]propyl}amino)pentyl]-8-(3-pyridyl)-6,7-dihydro-5H-benzo[7]annulen-3-ol], the IC50 on oestrogen receptor (ER) amounted to 110 nM.

As to `CN(CCCCCCC1=C(c2cccc(O)c2)CCCc2cc(O)ccc21)CCCCCC[S+]([O-])CCCC(F)(F)C(F)(F)F` (racemic) [Example 18, 8-(3-Hydroxyphenyl)-9-[6-(methyl{6-[(RS)-(4,4,5,5,5-pentafluoropentyl)sulphinyl]hexyl}amino)hexyl]-6,7-dihydro-5H-benzo[7]annulen-3-ol], the IC50 on oestrogen receptor (ER) amounted to 2 nM.

Take `CCN(CCCCCCC1=C(c2cccc(O)c2)CCCc2cc(O)ccc21)CCCS(=O)(=O)CCC(F)(F)F` [Example 65, 9-[6-(Ethyl{3-[(3,3,3-trifluoropropyl)sulphonyl]propyl}amino)hexyl]-8-(3-hydroxyphenyl)-6,7-dihydro-5H-benzo[7]annulen-3-ol]: the 50% inhibitory concentration (IC50) at oestrogen receptor (ER) stood at 6 nM.

On to `CN(CCCCCC1=C(c2cccc(O)c2)CCCc2cc(O)ccc21)CCCS(=O)(=O)CCCC(F)(F)C(F)(F)F` [Example 5, 8-(3-Hydroxyphenyl)-9-[5-(methyl{3-[(4,4,5,5,5-pentafluoropentyl)sulphonyl]propyl}amino)pentyl]-6,7-dihydro-5H-benzo[7]annulen-3-ol], for which, on oestrogen receptor (ER), the 50% inhibitory concentration (IC50) came to 5 nM.

On to `CN(CCCCCC1=C(c2ccccc2)CCCc2cc(O)ccc21)CCCCS(=O)(=O)CCCC(F)(F)C(F)(F)F` [Example 85, 9-[5-(Methyl{4-[(4,4,5,5,5-pentafluoropentyl)sulphonyl]butyl}amino)pentyl]-8-phenyl-6,7-dihydro-5H-benzo[7]annulen-3-ol], for which, on oestrogen receptor (ER), the concentration for half-maximal inhibition (IC50) was found to be 40 nM.

As for `CN(CCCCCCC1=C(c2cccc(O)c2)CCCc2cc(O)ccc21)CCCCS(=O)(=O)CCC(F)(F)F` [Example 113, 8-(3-Hydroxyphenyl)-9-[6-(methyl{4-[(3,3,3-trifluoropropyl)sulphonyl]butyl}amino)hexyl]-6,7-dihydro-5H-benzo[7]annulen-3-ol], the IC50 on oestrogen receptor (ER) worked out at 2 nM.

In the case of `CN(CCCCCC1=C(c2cccc(O)c2)CCCc2cc(O)ccc21)CCC[S+]([O-])CCCC(F)(F)C(F)(F)F` (racemic) [Example 4, 8-(3-Hydroxyphenyl)-9-[5-(methyl{3-[(RS)-(4,4,5,5,5-pentafluoropentyl)sulphinyl]propyl}amino)pentyl]-6,7-dihydro-5H-benzo[7]annulen-3-ol], the half-inhibitory concentration (IC50) at oestrogen receptor (ER) was determined as 3 nM.

`CN(CCCCCC1=C(c2ccc(S(C)(=O)=O)cc2)CCCc2cc(O)ccc21)CCCSCCCC(F)(F)C(F)(F)F` [Example 45, 8-(4-Mesylphenyl)-9-[5-(methyl{3-[(4,4,5,5,5-pentafluoropentyl)sulphanyl]propyl}amino)pentyl]-6,7-dihydro-5H-benzo[7]annulen-3-ol]: the IC50 on oestrogen receptor (ER) came out at 65 nM.

Turning to `CN(CCCCCCC1=C(c2ccc(F)c(O)c2)CCCc2cc(O)c(F)cc21)CCCS(=O)(=O)CCC(F)(F)C(F)(F)F` [Example 123, 2-Fluoro-8-(4-fluoro-3-hydroxyphenyl)-9-[6-(methyl{3-[(3,3,4,4,4-pentafluorobutyl)sulphonyl]propyl}amino)hexyl]-6,7-dihydro-5H-benzo[7]annulen-3-ol], the IC50 on oestrogen receptor (ER) amounted to 11 nM.

For `O=S(=O)(CCCN(CCO)CCCCCCC1=C(c2cccc(O)c2)CCCc2cc(O)ccc21)CCC(F)(F)F` [Example 98, 9-{6-[(2-Hydroxyethyl){3-[(3,3,3-trifluoropropyl)sulphonyl]propyl}amino]hexyl}-8-(3-hydroxyphenyl)-6,7-dihydro-5H-benzo[7]annulen-3-ol], at oestrogen receptor (ER), the IC50 came to 3 nM.

With `CN(CCCCCCC1=C(c2ccc(F)c(O)c2)CCCc2c1ccc(O)c2F)CCCCS(=O)(=O)CCC(F)(F)F` [Example 119, 4-Fluoro-8-(4-fluoro-3-hydroxyphenyl)-9-[6-(methyl{4-[(3,3,3-trifluoropropyl)sulphonyl]butyl}amino)hexyl]-6,7-dihydro-5H-benzo[7]annulen-3-ol], at oestrogen receptor (ER), the IC50 is 7 nM.

Source of the values: patent US20150080438A1, “6,7-Dihydro-5H-benzo[7]annulene derivatives, processes for their preparation, pharmaceutical products comprising them and their use for preparing medicaments” (Bayer Intellectual Property GmbH, priority 2011, published 2015).
